Converted amounts (≈) assume the structure as drawn.
Legend:
[1] = Antioxidant activity assessed as Mo(6) reduction activity after 60 min by UV-Vis spectrophotometric analysis; format: functional
[2] = test system: Aspergillus niger; assay: Antifungal activity against Aspergillus niger by agar well diffusion method; format: functional; conditions: for MIC: Aspergillus niger
[3] = test system: Pseudomonas aeruginosa; assay: Antibacterial activity against Pseudomonas aeruginosa by agar well diffusion method; format: functional; conditions: for MIC: Pseudomonas aeruginosa
[4] = test system: Staphylococcus aureus; assay: Antibacterial activity against Staphylococcus aureus by agar well diffusion method; format: functional; conditions: for MIC: Staphylococcus aureus
[5] = test system: Staphylococcus epidermidis; assay: Antibacterial activity against Staphylococcus epidermidis by agar well diffusion method; format: functional; conditions: for MIC: Staphylococcus epidermidis
[6] = Antioxidant activity assessed as H2O2 scavenging activity after 10 min by UV-Vis spectrophotometric analysis; format: functional
[7] = test system: Candida albicans; assay: Antifungal activity against Candida albicans by agar well diffusion method; format: functional; conditions: for MIC: Candida albicans
[8] = test system: Escherichia coli; assay: Antibacterial activity against Escherichia coli by agar well diffusion method; format: functional; conditions: for MIC: Escherichia coli
[9] = Anti-inflammatory activity assessed as inhibition of albumin denaturation incubated for 15 min at 27 degC followed by incubation at 60 degC for 10 min by UV-Vis spectrophotometric analysis

| SMILES | IC50 [1] [µg/mL] | -logMIC [2] | MIC [2] [µg/mL] | -logMIC [3] | MIC [3] [µg/mL] | -logMIC [4] | MIC [4] [µg/mL] | -logMIC [5] | MIC [5] [µg/mL] | IC50 [6] [µg/mL] | -logMIC [7] | MIC [7] [µg/mL] | -logMIC [8] | MIC [8] [µg/mL] | IC50 [9] [µg/mL] |
| --- | --- | --- | --- | --- | --- | --- | --- | --- | --- | --- | --- | --- | --- | --- | --- |
| O=C(N/N=C/c1ccccc1O)c1ccc(Cl)cc1 | 50 (≈ 182 µM) | 1 | 10 (≈ 36.4 µM) | 1.09 | 12.5 (≈ 45.5 µM) | 1.255 | 18 (≈ 65.5 µM) | 1.53 | 34 (≈ 124 µM) | 34 (≈ 124 µM) | 1.74 | 55 (≈ 200 µM) | 1.301 | 20 (≈ 72.8 µM) | 95 (≈ 346 µM) |
| O=C(N/N=C/c1ccccc1)c1ccccc1C(=O)c1ccccc1 | 49 (≈ 149 µM) |  |  | 0.81 | 6.5 (≈ 19.8 µM) | 1.477 | 30 (≈ 91.4 µM) | 1.69 | 50 (≈ 152 µM) | 152 (≈ 463 µM) | 2 | 100 (≈ 305 µM) | 1.924 | 84 (≈ 256 µM) | 105 (≈ 320 µM) |
| O=C(N/N=C/c1ccc(Cl)cc1)c1ccccc1C(=O)c1ccccc1 | 20 (≈ 55.1 µM) | 1.3 | 20 (≈ 55.1 µM) | 1.09 | 12.5 (≈ 34.5 µM) | 1.531 | 34 (≈ 93.7 µM) | 1.69 | 50 (≈ 138 µM) | 109 (≈ 300 µM) | 2.301 | 200 (≈ 551 µM) | 1.924 | 84 (≈ 232 µM) | 54 (≈ 149 µM) |
| O=C(N/N=C/c1ccc([N+](=O)[O-])cc1)c1ccccc1C(=O)c1ccccc1 | 18 (≈ 48.2 µM) | 1.4 | 25 (≈ 67 µM) | 1.3 | 20 (≈ 53.6 µM) | 1.531 | 34 (≈ 91.1 µM) | 1.47 | 30 (≈ 80.3 µM) | 125 (≈ 335 µM) | 1.924 | 84 (≈ 225 µM) | 1.397 | 25 (≈ 67 µM) | 17 (≈ 45.5 µM) |
| Cc1ccc(/C=N/NC(=O)c2ccccc2C(=O)c2ccccc2)cc1 | 5 (≈ 14.6 µM) |  |  | 1.4 | 25 (≈ 73 µM) | 1.531 | 34 (≈ 99.3 µM) | 2.3 | 200 (≈ 584 µM) | 84 (≈ 245 µM) | 1.698 | 50 (≈ 146 µM) | 2.225 | 168 (≈ 491 µM) | 12 (≈ 35 µM) |
| COc1cc(/C=N/NC(=O)c2ccccc2C(=O)c2ccccc2)ccc1O | 70 (≈ 187 µM) | 1.4 | 25 (≈ 66.8 µM) | 1.69 | 50 (≈ 134 µM) | 1.531 | 34 (≈ 90.8 µM) | 2.3 | 200 (≈ 534 µM) | 79 (≈ 211 µM) | 1.301 | 20 (≈ 53.4 µM) | 1.698 | 50 (≈ 134 µM) | 10 (≈ 26.7 µM) |
| O=C(N/N=C/c1ccc(O)cc1)c1ccccc1C(=O)c1ccccc1 | 100 (≈ 290 µM) | 1.92 | 84 (≈ 244 µM) | 1.4 | 25 (≈ 72.6 µM) | 1.531 | 34 (≈ 98.7 µM) | 1.92 | 84 (≈ 244 µM) | 91 (≈ 264 µM) | 2 | 100 (≈ 290 µM) | 1.903 | 80 (≈ 232 µM) | 20 (≈ 58.1 µM) |
| O=C(N/N=C/c1ccccc1[N+](=O)[O-])c1ccccc1C(=O)c1ccccc1 | 42 (≈ 112 µM) |  |  | 1.4 | 25 (≈ 67 µM) | 1.255 | 18 (≈ 48.2 µM) | 1.47 | 30 (≈ 80.3 µM) | 101 (≈ 271 µM) | 1.397 | 25 (≈ 67 µM) | 1.301 | 20 (≈ 53.6 µM) | 75 (≈ 201 µM) |
| O=C(N/N=C/c1ccccc1O)c1ccccc1C(=O)c1ccccc1 | 15 (≈ 43.6 µM) | 1.53 | 34 (≈ 98.7 µM) | 1.09 | 12.5 (≈ 36.3 µM) | 1.301 | 20 (≈ 58.1 µM) | 1.53 | 34 (≈ 98.7 µM) | 132 (≈ 383 µM) | 2 | 100 (≈ 290 µM) | 1.531 | 34 (≈ 98.7 µM) | 35 (≈ 102 µM) |
| COc1cc(/C=N/NC(=O)c2ccc(Cl)cc2)ccc1O | 32 (≈ 105 µM) | 1.69 | 50 (≈ 164 µM) | 1.4 | 25 (≈ 82 µM) | 1.255 | 18 (≈ 59.1 µM) | 2 | 100 (≈ 328 µM) | 0.5 (≈ 1.64 µM) | 1.924 | 84 (≈ 276 µM) | 1.531 | 34 (≈ 112 µM) | 160 (≈ 525 µM) |
| O=C(N/N=C/c1ccc([N+](=O)[O-])cc1)c1ccc(Cl)cc1 | 45 (≈ 148 µM) |  |  | 1.3 | 20 (≈ 65.9 µM) | 1.301 | 20 (≈ 65.9 µM) |  | 100 (≈ 329 µM) | 1.8 (≈ 5.93 µM) | 1.301 | 20 (≈ 65.9 µM) | 1.531 | 34 (≈ 112 µM) | 85 (≈ 280 µM) |
| O=C(N/N=C/c1c(O)ccc2ccccc12)c1ccc(Cl)cc1 | 120 (≈ 369 µM) | 2 | 100 (≈ 308 µM) | 1.4 | 25 (≈ 77 µM) | 1.477 | 30 (≈ 92.4 µM) | 2 | 100 (≈ 308 µM) | 69 (≈ 212 µM) | 1.531 | 34 (≈ 105 µM) | 1.924 | 84 (≈ 259 µM) | 80 (≈ 246 µM) |
| O=C(N/N=C/c1cccc([N+](=O)[O-])c1)c1ccc(Cl)cc1 | 30 (≈ 98.8 µM) |  | 10 (≈ 32.9 µM) | 1.4 | 25 (≈ 82.3 µM) | 1.301 | 20 (≈ 65.9 µM) | 1.69 | 50 (≈ 165 µM) | 22 (≈ 72.4 µM) | 1.531 | 34 (≈ 112 µM) | 1.301 | 20 (≈ 65.9 µM) | 124 (≈ 408 µM) |
| CC1(C)S[C@@H]2[C@H](NC(=O)[C@H](N)c3ccc(O)cc3)C(=O)N2[C@H]1C(=O)O [AMOXICILLIN] |  |  |  |  | 200 (≈ 547 µM) |  | 12.5 (≈ 34.2 µM) |  | 100 (≈ 274 µM) |  |  |  |  | 12.5 (≈ 34.2 µM) |  |
| C=CC1=C(C(=O)O)N2C(=O)[C@@H](NC(=O)/C(=N\OCC(=O)O)c3csc(N)n3)[C@H]2SC1 [CEFIXIME] |  |  |  |  | 400 (≈ 882 µM) |  | 50 (≈ 110 µM) |  | 400 (≈ 882 µM) |  |  |  |  | 50 (≈ 110 µM) |  |
| O=C(O)Cc1ccccc1Nc1c(Cl)cccc1Cl [DICLOFENAC] |  |  |  |  |  |  |  |  |  |  |  |  |  |  | 71 (≈ 240 µM) |
| OC(Cn1cncn1)(Cn1cncn1)c1ccc(F)cc1F [FLUCONAZOLE] |  |  | 400 (≈ 1310 µM) |  |  |  |  |  |  |  |  | 12.5 (≈ 40.8 µM) |  |  |  |
